# Test results as given in patent US20260176320A1, “MODULATORS OF G-PROTEIN COUPLED RECEPTORS” (priority 2018, published 2026).
# Read-outs that look alike come from different tables or passages of the source.
# Assays:
# Format in all cases: cell-based
# GLP-1R [1] = molecular target: T1, GLP-1R (Homo sapiens, UniProt P43220); assay: PathHunter β-arrestin assay
# Procedure, shortened: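 Overnight-plated cells; 0.2% BSA medium; agonist 22-pt 2× dilution series, duplicate; 90 min, 37 °C/5% CO2; detection reagent 3 h RT, dark; luminescence.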
# GIP-R = molecular target: T2, GIP-R (Homo sapiens, UniProt P48546); assay: HitHunter cAMP assay (GIP-R)
# T2 sequence (P48546 22-466): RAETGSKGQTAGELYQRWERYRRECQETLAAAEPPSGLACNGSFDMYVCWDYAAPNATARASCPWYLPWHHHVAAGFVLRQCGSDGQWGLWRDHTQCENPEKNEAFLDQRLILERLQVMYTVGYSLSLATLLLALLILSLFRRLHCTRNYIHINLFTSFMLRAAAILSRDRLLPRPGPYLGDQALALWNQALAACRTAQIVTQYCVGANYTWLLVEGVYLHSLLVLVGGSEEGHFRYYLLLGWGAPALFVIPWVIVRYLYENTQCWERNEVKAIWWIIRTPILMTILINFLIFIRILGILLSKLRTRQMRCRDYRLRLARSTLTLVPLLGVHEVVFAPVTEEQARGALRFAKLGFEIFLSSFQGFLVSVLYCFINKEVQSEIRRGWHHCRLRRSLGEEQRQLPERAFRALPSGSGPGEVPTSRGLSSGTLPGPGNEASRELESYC
# Procedure, shortened: (§1)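 Luminescent readout of cAMP by enzyme-fragment immunocompetition gave agonist concentration-response data. Cells (10,000/well) sat in HBSS buffer containing IBMX 625 μM, HEPES 10 mM and BSA 0.2%, exposed to agonist for 30 min at room temperature.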
# GLP-1R [2] = molecular target: T1, GLP-1R; assay: HitHunter cAMP assay (GLP-1R)
# Procedure, shortened: as §1
# [3] = Table 3; cAMP; read-out: (Emax) GIP-R
# [4] = Table 3A; cAMP; read-out: (Emax) GIP-R
# [5] = Table 3; cAMP; read-out: (Emax) GLP-1R
# [6] = Table 3A; cAMP; read-out: (Emax) GLP-1R
# T1 sequence (P43220 24-463): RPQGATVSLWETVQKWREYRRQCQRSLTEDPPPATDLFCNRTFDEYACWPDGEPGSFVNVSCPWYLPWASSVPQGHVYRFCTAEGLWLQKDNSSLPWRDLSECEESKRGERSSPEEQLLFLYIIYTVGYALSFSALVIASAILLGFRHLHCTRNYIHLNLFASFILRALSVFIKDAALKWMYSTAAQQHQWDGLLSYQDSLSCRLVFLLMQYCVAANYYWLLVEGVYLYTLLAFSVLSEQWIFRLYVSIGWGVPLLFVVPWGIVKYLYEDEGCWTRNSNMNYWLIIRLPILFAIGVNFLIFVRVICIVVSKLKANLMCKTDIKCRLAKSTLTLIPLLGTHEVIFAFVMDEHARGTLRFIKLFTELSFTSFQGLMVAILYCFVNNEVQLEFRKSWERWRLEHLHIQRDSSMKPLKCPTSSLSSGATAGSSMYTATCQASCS
structure (smiles),measurement,setting,value
CC[C@H](C)[C@H](NC(=O)[C@H](CO)NC(=O)[C@H](Cc1ccc(O)cc1)NC(=O)[C@H](CC(=O)O)NC(=O)[C@H](CO)NC(=O)[C@@H](NC(=O)[C@H](Cc1ccccc1)NC(=O)[C@@H](NC(=O)CNC(=O)[C@H](CCC(=O)O)NC(=O)C(C)(C)C(=O)NCCCN1C(=O)c2ccc(C)cc2C1=O)[C@@H](C)O)[C@@H](C)O)C(=O)N[C@@H](Cc1ccc(O)cc1)C(=O)N[C@@H](CC(C)C)C(=O)N[C@@H](CC(=O)O)C(=O)N[C@@H](CCCCN)C(=O)N[C@@H](CCC(N)=O)C(=O)N[C@@H](C)C(=O)N[C@@H](C)C(=O)NC(C)(C)C(=O)N[C@@H](CCC(=O)O)C(=O)N[C@@H](Cc1ccccc1)C(=O)N[C@H](C(=O)N[C@@H](CC(N)=O)C(=O)N[C@@H](Cc1c[nH]c2ccccc12)C(=O)N[C@@H](CC(C)C)C(=O)N[C@@H](CC(C)C)C(=O)N[C@@H](C)C(=O)NCC(=O)NCC(=O)N1CCC[C@H]1C(=O)N[C@@H](CO)C(=O)N[C@@H](CO)C(=O)NCC(=O)N[C@@H](C)C(=O)N1CCC[C@H]1C(=O)N1CCC[C@H]1C(=O)N1CCC[C@H]1C(=O)N[C@@H](CO)C(=O)N[C@@H](CCCCN)C(N)=O)C(C)C [Compound 129],EC50,GLP-1R [1],> 1000 nM
same,Emax,GIP-R; [3],102 to 109%
same,Emax,GIP-R; [4],102 to 109%
same,EC50,GIP-R; read-out: EC50 GIP-R/nM; Table 3; cAMP,0.1 to 10 nM
same,EC50,GIP-R; read-out: EC50 GIP-R/nM; Table 3A; cAMP,0.1 to 10 nM
same,Emax,GLP-1R [2]; [5],91 to 95%
same,Emax,GLP-1R [2]; [6],91 to 95%
same,EC50,GLP-1R [2]; read-out: EC50 GLP-1R/nM; Table 3; cAMP,1 to 100 nM
same,EC50,GLP-1R [2]; read-out: EC50 GLP-1R/nM; Table 3A; cAMP,1 to 100 nM
CC[C@H](C)[C@H](NC(=O)[C@H](CO)NC(=O)[C@H](Cc1ccc(O)cc1)NC(=O)[C@H](CC(=O)O)NC(=O)[C@H](CO)NC(=O)[C@@H](NC(=O)[C@H](Cc1ccccc1)NC(=O)[C@@H](NC(=O)CNC(=O)[C@H](CCC(=O)O)NC(=O)CCNC(=O)CCCN1C(=O)c2ccccc2C1=O)[C@@H](C)O)[C@@H](C)O)C(=O)N[C@@H](Cc1ccc(O)cc1)C(=O)N[C@@H](CC(C)C)C(=O)N[C@@H](CC(=O)O)C(=O)N[C@@H](CCCCN)C(=O)N[C@@H](CCC(N)=O)C(=O)N[C@@H](C)C(=O)N[C@@H](C)C(=O)NC(C)(C)C(=O)N[C@@H](CCC(=O)O)C(=O)N[C@@H](Cc1ccccc1)C(=O)N[C@H](C(=O)N[C@@H](CC(N)=O)C(=O)N[C@@H](Cc1c[nH]c2ccccc12)C(=O)N[C@@H](CC(C)C)C(=O)N[C@@H](CC(C)C)C(=O)N[C@@H](C)C(=O)NCC(=O)NCC(=O)N1CCC[C@H]1C(=O)N[C@@H](CO)C(=O)N[C@@H](CO)C(=O)NCC(=O)N[C@@H](C)C(=O)N1CCC[C@H]1C(=O)N1CCC[C@H]1C(=O)N1CCC[C@H]1C(=O)N[C@@H](CO)C(=O)N[C@@H](CCCCN)C(N)=O)C(C)C [Compound 146],EC50,"GLP-1R [1]; PathHunter β-arrestin assay, read-out: β-arrestin activity EC50",> 1000 nM
same,Emax,GIP-R; [3],83 to 97%
same,EC50,GIP-R; Table 3; cAMP; read-out: EC50 GIP-R/nM,10 to 100 nM
same,Emax,GIP-R; [4],83 to 97%
same,EC50,GIP-R; Table 3A; cAMP; read-out: EC50 GIP-R/nM,1 to 10 nM
same,Emax,GLP-1R [2]; [5],86 to 92%
same,EC50,GLP-1R [2]; Table 3; cAMP; read-out: EC50 GLP-1R/nM,1 to 10 nM
same,Emax,GLP-1R [2]; [6],86 to 92%
same,EC50,GLP-1R [2]; Table 3A; cAMP; read-out: EC50 GLP-1R/nM,1 to 10 nM
